# Columns and labels:
# [1] = tested on: enzyme associated with Bacillus stearothermophilus spores; experiment: Rapid enzyme fluorescence readout of dual rapid readout indicators after prevacuum steam sterilization; assay type: biochemical; details: 4-pulse prevacuum steam 121° C.
# Procedure: (§1) The indicators prepared for the Examples were dual rapid readout indicators that provided both a rapid, enzyme-based efficacy test and a confirmatory spore outgrowth test. Spores coated on the carrier strip 16 served as the source of active enzyme whose activity was measured by the rapid enzyme test. These same spores were then incubated in the spore outgrowth portion of the test.
# (§2) Bacillus stearothermophilus, commercially available as ATCC 7953 from American Type Culture Collection, Rockville, Md., was grown overnight (16 hours) at 58° C. in tryptic soy broth. This culture was used to inoculate the surface of agar plates consisting of 8 g/l nutrient broth, 4 g/l yeast extract, 0.1 g/l manganese chloride and 20 g/l agar at pH 7.2. Plates were incubated at 58° C. for 72 hours. Spores were scraped from the plates and suspended in sterile distilled water. The spores were separated from the vegetative debris by centrifuging the suspension at 7000 rpm and 4° C. for 20 minutes. The supernatant was poured off and the spores were resuspended in sterile distilled water. The cleaning procedure was repeated several times. After the final wash, the spores were suspended in sterile distilled water, at a concentration of approximately 1×10^8 spores per milliliter.
# (§3) The spores were then treated with the chemicals identified in Tables 1–5. All chemicals tested were obtained from commercial sources. The spores were centrifuged at 6000 rpm for 10 minutes. The supernatant and coating chemical mixtures were heated at 60–80° C. for several minutes and vortexed to get the material into solution. The spores were then mixed into the sterilant-resistant chemical solution. The sterilant-resistant chemical solution was applied to 5×25 mm, 591 A paper strips (Schleicher & Schuell, Inc., Keene, N.H.) by pipetting 10–15 microliters to each strip for a final population of about 1×10^6 spores per strip. The strips were dried 16 hours at 37° C.
# (§4) The treated spore strips were placed on the bottom of the outer container 12 of the indicator 10 and a barrier was inserted between the spore strip 16 and the inner container 18, which contained enzyme substrate. A […] ( 11/16 inch) disc of polypropylene blown microfiber material, with a weight of 200 g/m^2, commercially available as “THINSULATE™ 200-B brand Thermal Insulation” from 3M Company, St. Paul, Minn., was used as the barrier. The inner container 18 contained 0.67 ml nutrient medium, consisting of 17 g of a bacteriological peptone and a 0.17 g/l of L-alanine, as well as 0.1 g 4-methylumbelliferyl-alpha-D-glucoside, commercially available from Sigma Chemical Company, St. Louis, Mo., dissolved in 200 microliters of N,N-dimethylformamide, and 0.03 g bromocresol purple pH indicator dye, per liter of water. The pH of the enzyme substrate and nutrient medium solution was adjusted to 7.6 with 0.1N sodium hydroxide.
# (§5) Sterilization indicators were made as described above with each of the chemicals and concentrations described in Table 1. Control indicators were made using untreated spores. The indicators were placed in metal instrument trays and exposed at 121° C. in a Getinge Steam Sterilizer (Getinge International, Inc., 1100 Towbin Ave., Lakewood, N.J.) using a 4-pulse prevacuum cycle at 121° C. with a vacuum level of 0.075–0.085 bar and a steam pulse to 1.00 bar for each pulse. Indicators were exposed in the sterilizer for between 7 and 13 minutes. This cycle is depicted in the time-pressure diagram in FIG. 5. After exposure the inner containers containing the enzyme substrate and nutrient medium were crushed and the indicators were incubated at 60° C. The indicators were examined for fluorescence using a 3M™ ATTEST™ Model 190 Rapid Autoreader, commercially available from 3M Company, St. Paul, Minn. Additionally, spore growth, as indicated by a color change from purple to yellow, was determined visually after 168 hours of incubation at 60° C. […]
# [2] = tested on: Bacillus stearothermophilus spores; experiment: Spore outgrowth (color change) of indicators after prevacuum steam sterilization; assay type: cell-based; details: 4-pulse prevacuum steam 121° C.
# Procedure: as §1, §2, §3, §4, §5
# [3] = Example 2, 5 mg/ml coating, 7–13 min
# [4] = Example 2, 10 mg/ml coating, 7–13 min
# [5] = Example 2, 20 mg/ml coating, 7–13 min
# [6] = Example 2, 40 mg/ml coating, 7–13 min
# [7] = Example 2, 80 mg/ml coating, 7–13 min
# [8] = Example 2, 100 mg/ml coating, 7–13 min
# [9] = Example 3, 100 mg/ml coating, 7–15 min
# [10] = Example 4, 100 mg/ml coating, 7–18 min
smiles,measurement,setting,value
OCC(O)COCC(O)COCC(O)COCC(O)COCC(O)COCC(O)COCC(O)COCC(O)COCC(O)COCC(O)CO (stereo not shown) [Decaglycerol],FLUORESCENCE - PERCENT POSITIVE 1 HR,[1]; [3],0%
same,FLUORESCENCE - PERCENT POSITIVE 2 HR,[1]; [3],0%
same,FLUORESCENCE - PERCENT POSITIVE 3 HR,[1]; [3],0%
same,FLUORESCENCE - PERCENT POSITIVE 4 HR,[1]; [3],23.1%
same,FLUORESCENCE - PERCENT POSITIVE 5 HR,[1]; [3],23.1%
same,FLUORESCENCE - PERCENT POSITIVE 6 HR,[1]; [3],30.8%
same,FLUORESCENCE - PERCENT POSITIVE 1 HR,[1]; [4],0%
same,FLUORESCENCE - PERCENT POSITIVE 2 HR,[1]; [4],0%
same,FLUORESCENCE - PERCENT POSITIVE 3 HR,[1]; [4],7.7%
same,FLUORESCENCE - PERCENT POSITIVE 4 HR,[1]; [4],23.1%
same,FLUORESCENCE - PERCENT POSITIVE 5 HR,[1]; [4],23.1%
same,FLUORESCENCE - PERCENT POSITIVE 6 HR,[1]; [4],30.8%
same,FLUORESCENCE - PERCENT POSITIVE 1 HR,[1]; [5],0%
same,FLUORESCENCE - PERCENT POSITIVE 2 HR,[1]; [5],0%
same,FLUORESCENCE - PERCENT POSITIVE 3 HR,[1]; [5],9.1%
same,FLUORESCENCE - PERCENT POSITIVE 4 HR,[1]; [5],18.2%
same,FLUORESCENCE - PERCENT POSITIVE 5 HR,[1]; [5],45.5%
same,FLUORESCENCE - PERCENT POSITIVE 6 HR,[1]; [5],63.6%
same,FLUORESCENCE - PERCENT POSITIVE 1 HR,[1]; [6],0%
same,FLUORESCENCE - PERCENT POSITIVE 2 HR,[1]; [6],0%
same,FLUORESCENCE - PERCENT POSITIVE 3 HR,[1]; [6],7.7%
same,FLUORESCENCE - PERCENT POSITIVE 4 HR,[1]; [6],42.3%
same,FLUORESCENCE - PERCENT POSITIVE 5 HR,[1]; [6],46.2%
same,FLUORESCENCE - PERCENT POSITIVE 6 HR,[1]; [6],53.8%
same,FLUORESCENCE - PERCENT POSITIVE 1 HR,[1]; [7],0%
same,FLUORESCENCE - PERCENT POSITIVE 2 HR,[1]; [7],12.0%
same,FLUORESCENCE - PERCENT POSITIVE 3 HR,[1]; [7],36.0%
same,FLUORESCENCE - PERCENT POSITIVE 4 HR,[1]; [7],64.0%
same,FLUORESCENCE - PERCENT POSITIVE 5 HR,[1]; [7],72.0%
same,FLUORESCENCE - PERCENT POSITIVE 6 HR,[1]; [7],76.0%
same,FLUORESCENCE - PERCENT POSITIVE 1 HR,[1]; [8],0%
same,FLUORESCENCE - PERCENT POSITIVE 2 HR,[1]; [8],6.9%
same,FLUORESCENCE - PERCENT POSITIVE 3 HR,[1]; [8],48.3%
same,FLUORESCENCE - PERCENT POSITIVE 4 HR,[1]; [8],69.0%
same,FLUORESCENCE - PERCENT POSITIVE 5 HR,[1]; [8],79.3%
same,FLUORESCENCE - PERCENT POSITIVE 6 HR,[1]; [8],89.7%
same,NO. GROWTH POSITIVE 168 HR,[2]; [3],13
same,NO. GROWTH POSITIVE 168 HR,[2]; [4],13
same,NO. GROWTH POSITIVE 168 HR,[2]; [5],11
same,NO. GROWTH POSITIVE 168 HR,[2]; [6],26
same,NO. GROWTH POSITIVE 168 HR,[2]; [7],25
same,NO. GROWTH POSITIVE 168 HR,[2]; [8],29
OCC(O)COCC(O)COCC(O)COCC(O)COCC(O)COCC(O)CO (stereo not shown) [Hexaglycerol],accuracy of sterilization indicators compared to indicators made with untreated spores,[1],did not improve the accuracy
same,FLUORESCENCE - PERCENT POSITIVE 1 HR,[1]; [3],0%
same,FLUORESCENCE - PERCENT POSITIVE 2 HR,[1]; [3],0%
same,FLUORESCENCE - PERCENT POSITIVE 3 HR,[1]; [3],0%
same,FLUORESCENCE - PERCENT POSITIVE 4 HR,[1]; [3],9.1%
same,FLUORESCENCE - PERCENT POSITIVE 5 HR,[1]; [3],45.5%
same,FLUORESCENCE - PERCENT POSITIVE 6 HR,[1]; [3],63.6%
same,FLUORESCENCE - PERCENT POSITIVE 1 HR,[1]; [4],0%
same,FLUORESCENCE - PERCENT POSITIVE 2 HR,[1]; [4],0%
same,FLUORESCENCE - PERCENT POSITIVE 3 HR,[1]; [4],5.0%
same,FLUORESCENCE - PERCENT POSITIVE 4 HR,[1]; [4],15.0%
same,FLUORESCENCE - PERCENT POSITIVE 5 HR,[1]; [4],35.0%
same,FLUORESCENCE - PERCENT POSITIVE 6 HR,[1]; [4],50.0%
same,FLUORESCENCE - PERCENT POSITIVE 1 HR,[1]; [5],0%
same,FLUORESCENCE - PERCENT POSITIVE 2 HR,[1]; [5],0%
same,FLUORESCENCE - PERCENT POSITIVE 3 HR,[1]; [5],11.1%
same,FLUORESCENCE - PERCENT POSITIVE 4 HR,[1]; [5],38.9%
same,FLUORESCENCE - PERCENT POSITIVE 5 HR,[1]; [5],50.0%
same,FLUORESCENCE - PERCENT POSITIVE 6 HR,[1]; [5],61.1%
same,FLUORESCENCE - PERCENT POSITIVE 1 HR,[1]; [6],0%
same,FLUORESCENCE - PERCENT POSITIVE 2 HR,[1]; [6],0%
same,FLUORESCENCE - PERCENT POSITIVE 3 HR,[1]; [6],26.9%
same,FLUORESCENCE - PERCENT POSITIVE 4 HR,[1]; [6],46.2%
same,FLUORESCENCE - PERCENT POSITIVE 5 HR,[1]; [6],53.8%
same,FLUORESCENCE - PERCENT POSITIVE 6 HR,[1]; [6],61.5%
same,FLUORESCENCE - PERCENT POSITIVE 1 HR,[1]; [7],0%
same,FLUORESCENCE - PERCENT POSITIVE 2 HR,[1]; [7],0%
same,FLUORESCENCE - PERCENT POSITIVE 3 HR,[1]; [7],37.5%
same,FLUORESCENCE - PERCENT POSITIVE 4 HR,[1]; [7],58.3%
same,FLUORESCENCE - PERCENT POSITIVE 5 HR,[1]; [7],70.8%
same,FLUORESCENCE - PERCENT POSITIVE 6 HR,[1]; [7],70.8%
same,NO. GROWTH POSITIVE 168 HR,[2]; [3],11
same,NO. GROWTH POSITIVE 168 HR,[2]; [4],20
same,NO. GROWTH POSITIVE 168 HR,[2]; [5],18
same,NO. GROWTH POSITIVE 168 HR,[2]; [6],26
same,NO. GROWTH POSITIVE 168 HR,[2]; [7],24
OC[C@@H](O)[C@@H](O)[C@H](O)[C@@H](O)CO [Sorbitol],FLUORESCENCE - PERCENT POSITIVE 1 HR,[1]; [9],0%
same,FLUORESCENCE - PERCENT POSITIVE 2 HR,[1]; [9],52.8%
same,FLUORESCENCE - PERCENT POSITIVE 3 HR,[1]; [9],83.3%
same,FLUORESCENCE - PERCENT POSITIVE 4 HR,[1]; [9],91.7%
same,FLUORESCENCE - PERCENT POSITIVE 1 HR,[1]; [10],5.4%
same,FLUORESCENCE - PERCENT POSITIVE 2 HR,[1]; [10],40.5%
same,FLUORESCENCE - PERCENT POSITIVE 3 HR,[1]; [10],81.1%
same,FLUORESCENCE - PERCENT POSITIVE 4 HR,[1]; [10],89.2%
same,GROWTH POSITIVE 168 HR,[2]; [9],36
same,NO. GROWTH POSITIVE 168 HR,[2]; [10],37
